According to US20230234936A1, “COMPOUND FOR TARGETING AND DEGRADING PROTEIN, AND PREPARATION METHOD THEREFOR AND USE THEREOF” (SHANGHAI LEADINGTAC PHARMACEUTICAL CO., LTD., priority 2020, published 2023):

Columns and labels:
IRAK4 kinase = molecular target: T1, IRAK4 kinase (Homo sapiens, UniProt Q9NWZ3); assay: IRAK4 kinase activity test (KinEASE-STK S1 HTRF kit); assay type: biochemical; conditions: 2.5 nM kinase, 1 μM biotinylated polypeptide substrate, 7 μM ATP, 37° C. 120 min
T1 sequence (Q9NWZ3 1-460): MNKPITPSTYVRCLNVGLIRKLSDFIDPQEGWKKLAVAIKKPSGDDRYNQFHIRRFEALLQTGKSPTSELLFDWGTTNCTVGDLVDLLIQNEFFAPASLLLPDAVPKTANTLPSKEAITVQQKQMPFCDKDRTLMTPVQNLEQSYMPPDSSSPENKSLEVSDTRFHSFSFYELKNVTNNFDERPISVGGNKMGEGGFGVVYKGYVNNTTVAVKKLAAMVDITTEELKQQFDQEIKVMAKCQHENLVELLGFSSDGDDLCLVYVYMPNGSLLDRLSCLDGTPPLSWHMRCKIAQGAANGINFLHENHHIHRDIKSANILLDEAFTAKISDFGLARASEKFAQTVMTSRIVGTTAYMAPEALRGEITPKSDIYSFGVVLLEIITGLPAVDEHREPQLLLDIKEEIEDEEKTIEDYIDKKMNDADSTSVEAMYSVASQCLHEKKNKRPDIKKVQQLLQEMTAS
Method: KinEASE-STK S1 serine/threonine kinase kit (Cisbio) was used to detect the inhibitory effect of the compound on IRAK4 kinase activity. The specific method was: the compound was dissolved in dimethyl sulfoxide, and then it was diluted with the buffer solution of the kit by equal gradient to make the final concentration range of the tested compound in the reaction system 10000 nM-0.038 nM, then 2.5 nM kinase, 1 μM biotinylated polypeptide substrate and 7 μM adenosine triphosphate (ATP) were added in sequence and incubated at 37° C. for 120 min. Subsequently, anti-phosphorylated serine/threonine antibody coupled with europium element compound and modified XL665 streptavidin were added to the reaction system to terminate the reaction. After incubating at room temperature for 1 h, the fluorescence intensity of each well at the emission wavelength of 620 nm and 665 nm and the excitation wavelength of 337 nm was determined in HTRF mode on the microplate reader EnVision(PerkinElmer), the ratio value was calculated using the formula Ratio=(665 nm/620 nm)×10^4. By comparing with the fluorescence intensity ratio of the control group, the inhibition rate of the compound at each concentration was calculated, and then the IC50 value of the compound was obtained by fitting the nonlinear curve with the logarithmic concentration-inhibition rate by GraphPad Prism 7.

[1] = molecular target: T2, IRAK4 protein in THP-1 cells (Homo sapiens, UniProt Q9NWZ3); assay: Degradation of IRAK4 in THP-1 cells (Western blot); assay type: cell-based; conditions: 24 hours, compound 1-3000 nM
T2 construct: endogenous in cells; host or cells: THP-1
T2 sequence (Q9NWZ3 1-460): T1 sequence (Q9NWZ3 1-460)
Method: Each well of the 24-well cell culture plate was inoculated with 0.95 mL THP-1 cells (stem cell bank of Chinese academy of sciences) with a cell density of 5×10^5 cells/well. The cell plate was placed in a 5% carbon dioxide incubator and cultured overnight at 37° C., then 50 μL compound in dimethyl sulfoxide was added. The final concentration of the compound was in the range of 1-3000 nM. After continuous cultivation for 24 hours, the cells were collected into a 1.5 mL centrifuge tube, centrifuged at 1000 rpm and 4° C. for 5 minutes. Cell precipitation was cleaned twice with 1-DPBS, resuspended cells were lysed with 200 μL lysate (cell lysate was Western and IP cell lysate (Beyotime), supplemented with 1 mM mixture of phenylmethylsulfonyl fluoride and protease inhibitor (Beyotime)), left on ice for 30 minutes, then centrifuged at 14000 g at 4° C. for 10 minutes, and the supernatant was taken to detect IRAK4 protein level by Western blot.
Western blot method: The total protein concentration in the supernatant of cell lysis was determined by BCA protein quantitative kit (Tiangen). According to the concentration of total protein detected by BCA, the supernatant was adjusted to 0.2 μg/μL with PBS and 5× SDS-PAGE protein loading buffer (Beyotime), bathed in water at 100° C. for 10 minutes, then placed in ice bath for 5 minutes, centrifuged at 14000 g and 4° C. for 5 minutes, and then collected as WB loading sample. Prefabricated glue (KeyGEN) was used for protein electrophoresis with a loading amount of 10 μL (total protein 2 μg). After Tris-MOPS-SDS electrophoresis solution (Adamas), 120V constant pressure electrophoresis was performed. After electrophoresis, the protein on the adhesive strip was transferred to PVDF membrane with a constant current of […] for 50 minutes. After the membrane was transferred, the membrane was placed in 1×QuickBlock blocking buffer (Beyotime) and incubated for 30 minutes at room temperature. After blocking, PVDF membranes were incubated with IRAK4 primary antibody (Abcam) overnight at 4°, the membranes were washed with TBST buffer (2.4 g Tris, 8.8 g NaCl, 1.5 mL Tween 20, pH adjusted to 7.4, constant volume to 1 L) for 30 minutes, incubated with secondary antibody (Abcam) for 2 hours at room temperature, finally incubated with Clarity Western ECL Substrate(BIO-RAD) for 5 minutes for luminescence development, chemiluminescence imaging system (Clinx, chemiScope 6200 Touch) for development and protein mapping photography. The protein map was analyzed by Clinx chemiluminescence analysis software for grayscale values. Using the formula: grayscale correction value=(target protein grayscale value/corresponding internal reference grayscale value)×10^3, the grayscale correction value of each sample was calculated. The degradation rate was calculated by comparing with the grayscale correction value of the control group. Furthermore, DC50 and Dmax values of the compound were obtained by the nonlinear curve fitting with the logarithmic concentration-inhibition rate by GraphPad Prism 7.

Row | IC50 (IRAK4 kinase) | DC50 [1] | Dmax [1] | Structure (SMILES)
1 | 2.9 nM | 7.4 nM | 99.1% | COc1cc2nn(C3CCN(CCCN4CCC5(CC4)CCN(C(=O)c4ccc(OC)c(N6CCC(=O)NC6=O)c4)CC5)CC3)cc2cc1NC(=O)c1cccc(C(F)(F)F)n1 [Example 2, N-(2-(1-(3-(9-(3-(2,4-dioxotetrahydropyrimi-din-1 (2H)-yl)-4-methoxyben-zoyl)-3,9-diazaspiro [5.5]undec-3-yl)propyl)piperidin-4-yl)-6-methoxy-2H-indazol-5-yl)-6-(tri-fluoromethyl)-2-pyridine carboxamide]
2 | 2.7 nM | 23.1 nM | 90.5% | COc1cc2nn(C3CCN(CCCCN4CCC5(CC4)CCN(C(=O)c4ccc(OC)c(N6CCC(=O)NC6=O)c4)CC5)CC3)cc2cc1NC(=O)c1cccc(C(F)(F)F)n1 [Example 3]
3 | 7.6 nM | 24 nM | 91.7% | COc1cc2nn(C3CCN(CCC4CCN(C(=O)c5ccc(OC)c(N6CCC(=O)NC6=O)c5)CC4)CC3)cc2cc1NC(=O)c1cccc(C(F)(F)F)n1 [Example 6, N-(2-(1-(2-(1-(3-(2,4-dioxotetrahydropyrim-idin-1 (2H)-yl)-4-methoxyben-zoyl)piperidin-4-yl)ethyl)piperidin-4-yl)-6-me-thoxy-2H-indazol-5-yl)-6-(trifluoromethyl) pyridinecarboxamide]
4 | 5.9 nM | 9.4 nM | 95.5% | COc1ccc(C(=O)N2CCC(CCN3CCC(n4cc5cc(NC(=O)c6cccc(C(F)(F)F)n6)c(C(C)(C)O)cc5n4)CC3)CC2)cc1N1CCC(=O)NC1=O [Example 7, N-(2-(1-(2-(1-(3-(2,4-dioxotetrahydropyrimidin-1 (2H)-yl)-4-methoxybenzoyl)piperidin-4-yl)ethyl)piperidin-4-yl)-6-(2-hydroxyprop-2-yl)-2H-indazol-5-yl)-6-(trifluoromethyl) pyridinecarboxamide]
5 | 18 nM | 16.4 nM | 94.3% | COc1cc2nn(C3CCN(CCCCCN(C)C(=O)c4ccc(OC)c(N5CCC(=O)NC5=O)c4)CC3)cc2cc1NC(=O)c1cccc(C(F)(F)F)n1 [Example 9, N-(2-(1-(5-(3-(2,4-dioxotetrahydropyrimidin-1 (2H)-yl)-4-methoxy-N-methylbenzamido)pentyl)piperidin-4-yl)-6-methoxy-2H-indazol-5-yl)-6-(trifluoromethyl) pyridinecarboxamide]
6 | 6.5 nM | 2.3 nM | 100% | COc1ccc(C(=O)N2CCC3(CCN(CCN4CCC(n5cc6cc(NC(=O)c7cccc(C(F)(F)F)n7)c(C(C)(C)O)cc6n5)CC4)CC3)CC2)cc1N1CCC(=O)NC1=O [Example 10, N-(2-(1-(2-(9-(3-(2,4-dioxotetrahydropyrimidin-1 (2H)-yl)-4-methoxybenzoyl)-3,9-diazaspiro[5.5]undec-3-yl)ethyl)piperidin-4-yl)-6-(2-hydroxyprop-2-yl)-2H-indazol-5-yl)-6-(trifluoromethyl) pyridinecarboxamide]
7 | 6 nM | 27.7 nM | 99.6% | COc1ccc(C(=O)N2CCC3(CCN(CCCN4CCC(n5cc6cc(NC(=O)c7cccc(C(F)(F)F)n7)c(C(C)(C)O)cc6n5)CC4)CC3)CC2)cc1N1CCC(=O)NC1=O [Example 11]
8 | 7.9 nM | 1.4 nM | 96.9% | COc1ccc(C(=O)N2CCC3(CC2)CN(CCN2CCC(n4cc5cc(NC(=O)c6cccc(C(F)(F)F)n6)c(C(C)(C)O)cc5n4)CC2)C3)cc1N1CCC(=O)NC1=O [Example 12, N-(2-(1-(2-(7-(3-(2,4-dioxotetrahydropyrimidin-1 (2H)-yl)-4-methoxybenzoyl)-2,7-diazaspiro [3.5]non-2-yl)ethyl)piperidin-4-yl)-6-(2-hydroxyprop-2-yl)-2H-indazol-5-yl)-6-(trifluoro-methyl) pyridinecarboxamide]
9 | 9.2 nM | 7.1 nM | 99.4% | COc1cc2nn(C3CCN(CCN4CCC5(CC4)CCN(C(=O)c4ccc(Cl)c(N6CCC(=O)NC6=O)c4)CC5)CC3)cc2cc1NC(=O)c1cccc(C(F)(F)F)n1 [Example 16, N-(2-(1-(2-(9-(4-chloro-3-(2,4-dioxotetrahydro-pyrimidin-1 (2H)-yl)benzoyl)-3,9-diazaspiro[5.5]undec-3-yl)ethyl)piperidin-4-yl)-6-methoxy-2H-in-dazol-5-yl)-6-(tri-fluoromethyl) pyridinecarbox-amide]
10 | 7.9 nM | 5.3 nM | 96.9% | CC(C)(O)c1cc2nn(C3CCN(CCN4CCC5(CC4)CCN(C(=O)c4ccc(Cl)c(N6CCC(=O)NC6=O)c4)CC5)CC3)cc2cc1NC(=O)c1cccc(C(F)(F)F)n1 [Example 17, N-(2-(1-(2-(9-(4-chloro-3-(2,4-dioxotetrahydro-pyrimidin-1 (2H)-yl)benzoyl)-3,9-diazaspiro[5.5]undec-3-yl)ethyl)piperidin-4-yl)-6-(2-hydroxyprop-2-yl)-2H-indazol-5-yl)-6-(trifluoro-methyl) pyridinecarbox-amide]
11 | 9.6 nM | 7.1 nM | 99.4% | COc1cc2nn(C3CCN(CCCC4CCN(C(=O)c5ccc(OC)c(N6CCC(=O)NC6=O)c5)CC4)CC3)cc2cc1NC(=O)c1cccc(C(F)(F)F)n1 [Example 18, N-(2-(1-(3-(1-(3-(2,4-dioxotetrahydro-pyrimidin-1 (2H)-yl)-4-me-thoxybenzoyl)piperidin-4-yl)propyl)piperidin-4-yl)-6-methoxy-2H-in-dazol-5-yl)-6-(trifluorometh-yl) pyridinecarbox-amide]
12 | 16.9 nM | 13.4 nM | 92.8% | COc1cc2nn(C3CCN(CCCN4CCN(C(=O)c5ccc(OC)c(N6CCC(=O)NC6=O)c5)CC4)CC3)cc2cc1NC(=O)c1cccc(C(F)(F)F)n1 [Example 19, N-(2-(1-(3-(4-(3-(2,4-dioxotetrahydro-pyrimidin-1 (2H)-yl)-4-me-thoxybenzoyl)piperazin-1-yl)propyl)piperidin-4-yl)-6-methoxy-2H-in-dazol-5-yl)-6-(trifluorometh-yl) pyridinecarbox-amide]
13 | 9.5 nM | 12.2 nM | 93.7% | COc1cc2nn(C3CCN(CCOC4CCN(C(=O)c5ccc(OC)c(N6CCC(=O)NC6=O)c5)CC4)CC3)cc2cc1NC(=O)c1cccc(C(F)(F)F)n1 [Example 20]
